Data from patent US10316049B2, “Tank-binding kinase inhibitor compounds” (Gilead Sciences, Inc., priority 2015, dated 2019).
pIC50: −log10 of the molar value.

Key:
TBK1 = molecular target: T1, TBK1 (Homo sapiens, UniProt Q9UHD2); experiment: TR-FRET enzymatic activity assay, TBK1; format: biochemical; further: full length recombinant TBK1 at 2.5 nM
T1 construct: TBK1 and IKKε were expressed and purified as full length recombinant proteins; made in house
T1 sequence (Q9UHD2 1-729): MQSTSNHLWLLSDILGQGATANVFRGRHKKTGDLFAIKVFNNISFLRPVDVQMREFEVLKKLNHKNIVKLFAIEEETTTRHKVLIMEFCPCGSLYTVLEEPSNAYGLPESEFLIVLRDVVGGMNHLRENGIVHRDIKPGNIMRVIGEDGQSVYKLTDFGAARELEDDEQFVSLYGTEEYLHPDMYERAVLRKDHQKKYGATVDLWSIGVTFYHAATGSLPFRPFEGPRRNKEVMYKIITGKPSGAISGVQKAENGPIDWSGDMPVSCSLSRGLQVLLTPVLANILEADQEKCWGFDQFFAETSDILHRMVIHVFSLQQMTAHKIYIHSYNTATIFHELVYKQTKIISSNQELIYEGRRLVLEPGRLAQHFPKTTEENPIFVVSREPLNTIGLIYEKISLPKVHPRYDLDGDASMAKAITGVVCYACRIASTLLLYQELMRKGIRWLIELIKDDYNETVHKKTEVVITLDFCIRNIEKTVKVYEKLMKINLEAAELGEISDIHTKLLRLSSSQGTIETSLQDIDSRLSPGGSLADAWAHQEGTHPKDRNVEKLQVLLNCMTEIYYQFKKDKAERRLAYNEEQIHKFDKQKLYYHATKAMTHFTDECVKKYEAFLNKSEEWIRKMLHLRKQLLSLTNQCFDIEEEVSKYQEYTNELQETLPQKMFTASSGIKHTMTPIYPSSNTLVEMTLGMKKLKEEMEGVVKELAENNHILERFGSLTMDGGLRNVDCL
Summary of the method: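 Full-length recombinant enzymes phosphorylated a biotinylated Ser/Thr peptide for 240 min at 25 °C, stopped with EDTA. Phosphopeptide detected by TR-FRET (streptavidin XL665, Eu-cryptate anti-phospho antibody). IC50 from four-parameter fits normalized to 1 μM staurosporine and DMSO controls, as geometric means of at least four determinations.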

IKKε = molecular target: T2, IKKε (Homo sapiens, UniProt Q14164); experiment: TR-FRET enzymatic activity assay, IKKε; format: biochemical; conditions: read-out: IKKϵ IC50; further: full length recombinant IKKε at 0.3 nM
T2 construct: TBK1 and IKKε were expressed and purified as full length recombinant proteins; made in house
T2 sequence (Q14164 1-716): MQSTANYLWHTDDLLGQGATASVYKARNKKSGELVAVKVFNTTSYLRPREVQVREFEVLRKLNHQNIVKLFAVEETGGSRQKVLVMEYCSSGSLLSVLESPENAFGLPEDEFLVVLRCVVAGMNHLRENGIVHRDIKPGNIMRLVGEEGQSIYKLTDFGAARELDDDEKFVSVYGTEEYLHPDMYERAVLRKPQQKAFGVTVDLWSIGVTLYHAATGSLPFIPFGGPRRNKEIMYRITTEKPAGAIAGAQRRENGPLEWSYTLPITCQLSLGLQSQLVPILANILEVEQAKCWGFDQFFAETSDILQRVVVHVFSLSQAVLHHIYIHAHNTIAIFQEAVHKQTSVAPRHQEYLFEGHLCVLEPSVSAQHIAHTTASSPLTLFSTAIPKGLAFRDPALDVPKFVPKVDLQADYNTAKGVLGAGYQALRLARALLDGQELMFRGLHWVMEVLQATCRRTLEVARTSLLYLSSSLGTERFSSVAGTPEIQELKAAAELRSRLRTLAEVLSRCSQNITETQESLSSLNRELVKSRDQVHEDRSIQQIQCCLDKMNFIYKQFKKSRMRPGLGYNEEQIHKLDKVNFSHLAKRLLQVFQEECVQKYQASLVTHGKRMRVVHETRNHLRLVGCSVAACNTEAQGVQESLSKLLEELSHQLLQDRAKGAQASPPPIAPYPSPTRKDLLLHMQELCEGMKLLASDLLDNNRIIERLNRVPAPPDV
Summary of the method: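 Full-length recombinant IKKε phosphorylated a biotinylated Ser/Thr peptide for 240 min at 25 °C; EDTA stop. Phospho-peptide detected by TR-FRET with streptavidin-XL665 (125 nM) and Eu-cryptate anti-phospho antibody. Normalised to staurosporine and DMSO controls; IC50 from four-parameter fit, geometric mean of ≥4 runs.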

Cc1noc([C@@H]2C[C@H]2C(=O)Nc2cc(-c3ccc(OC4CCOCC4)c(C#N)c3)ccn2)n1 [Example 108, (1R,2R)—N-(4-(3-cyano-4-((tetrahydro-2H-pyran-4-yl)oxy)phenyl)pyridin-2-yl)-2-(3-methyl-1,2,4-oxadiazol-5-yl)cyclopropane-1-carboxamide]
pIC50 (TBK1): 6.73
pIC50 (IKKε): 6.49

N#Cc1cc(-c2ccnc(NC(=O)[C@@H]3C[C@H]3c3cccnc3)c2)ccc1O[C@H]1CCN(C(=O)[C@@H](O)CO)CC1(F)F [Example 139, (1R,2R)—N-(4-(3-cyano-4-(((S)-1-((S)-2,3-dihydroxypropanoyl)-3,3-difluoropiperidin-4-yl)oxy)phenyl)pyridin-2-yl)-2-(pyridin-3-yl)cyclopropane-1-carboxamide]
pIC50 (TBK1): 7.80
pIC50 (IKKε): 7.79

N#Cc1cc(-c2ccnc(NC(=O)[C@H]3C[C@@H]3c3cscn3)c2)ccc1OC1CCOCC1 (relative stereo) [Example 123, (1,2-Trans)-N-(4-(3-cyano-4-((tetrahydro-2H-pyran-4-yl)oxy)phenyl)pyridin-2-yl)-2-(thiazol-4-yl)cyclopropane-1-carboxamide]
pIC50 (TBK1): 6.03
pIC50 (IKKε): < 6.00

N#Cc1cc(-c2ccnc(NC(=O)[C@H]3C[C@@H]3c3cccnc3)c2)ccc1O[C@H]1CCN(C(=O)[C@@H](O)CO)CC1(F)F [Example 140, (1S, 2S)—N-(4-(3-cyano-4-(((S)-1-((S)-2,3-dihydroxypropanoyl)-3,3-difluoropiperidin-4-yl)oxy)phenyl)pyridin-2-yl)-2-(pyridin-3-yl)cyclopropane-1-carboxamide]
pIC50 (TBK1): 8.34
pIC50 (IKKε): 8.23

C[C@H]1C[C@@H](Oc2ccc(-c3cc(NC(=O)C4CC4)ncn3)cc2C#N)CCN1C(=O)CO [Example 112, N-(6-(3-cyano-4-(((2S,4S)-1-(2-hydroxyacetyl)-2-methylpiperidin-4-yl)oxy)phenyl)pyrimidin-4-yl)cyclopropanecarboxamide]
pIC50 (TBK1): 6.97
pIC50 (IKKε): 6.68

Cn1cc([C@H]2C[C@@H]2C(=O)Nc2cc(-c3ccc(O[C@H]4CCN(C(=O)CO)C[C@H]4F)c(C#N)c3)ccn2)cn1 [Example 126, (1S,2S)—N-(4-(3-Cyano-4-(((3R,4S)-3-fluoro-1-(2-hydroxyacetyl)piperidin-4-yl)oxy)phenyl)pyridin-2-yl)-2-(1-methyl-1H-pyrazol-4-yl)cyclopropane-1-carboxamide]
pIC50 (TBK1): 8.24
pIC50 (IKKε): 7.85

N#Cc1cc(-c2cc(NC(=O)C3CC3)ncn2)ccc1O[C@@H]1CCN(C(=O)CO)C[C@H]1F [Example 111, N-(6-(3-cyano-4-(((3R,4R)-3-fluoro-1-(2-hydroxyacetyl)piperidin-4-yl)oxy)phenyl)pyrimidin-4-yl)cyclopropanecarboxamide]
pIC50 (TBK1): 6.98
pIC50 (IKKε): 6.60

N#Cc1cc(-c2ccnc(NC(=O)[C@@H]3C[C@@H]3c3ccccc3)c2)ccc1O[C@H]1CCN(C(=O)CO)C[C@H]1F (stereo in doubt) [Example 71, (1,2-cis)-N-(4-(3-Cyano-4-(((3R,4S)-3-fluoro-1-(2-hydroxyacetyl)piperidin-4-yl)oxy)phenyl)pyridin-2-yl)-2-phenylcyclopropane-1-carboxamide]
pIC50 (TBK1): 7.29
pIC50 (IKKε): 6.93

N#Cc1cc(-c2ccnc(NC(=O)[C@@H]3C[C@H]3C=O)c2)ccc1OC1CCOCC1 (relative stereo) [Example 40, (1,2-trans)-N-(4-(3-cyano-4-((tetrahydro-2H-pyran-4-yl)oxy)phenyl)pyridin-2-yl)-2-formylcyclopropane-1-carboxamide]
pIC50 (TBK1): 7.21
pIC50 (IKKε): 7.19

N#Cc1cc(-c2ccnc(NC(=O)C3CC34CC4)c2)ccc1OC1CCOCC1 (centres unmarked) [Example 48, N-(4-(3-cyano-4-((tetrahydro-2H-pyran-4-yl)oxy)phenyl)pyridin-2-yl)spiro[2.2]pentane-1-carboxamide]
pIC50 (TBK1): 6.57
pIC50 (IKKε): 6.29

N#Cc1cc(-c2cc(NC(=O)C3CC3)ncn2)ccc1O[C@H]1CCN(C(=O)CO)CC1(F)F [Example 20, (S)—N-(6-(3-cyano-4-((3,3-difluoro-1-(2-hydroxyacetyl)piperidin-4-yl)oxy)phenyl)pyrimidin-4-yl)cyclopropanecarboxamide]
pIC50 (TBK1): 8.32
pIC50 (IKKε): 8.02

N#Cc1cc(-c2cc(NC(=O)C3CC3)ncn2)ccc1O[C@H]1CCN(C(=O)c2nnc[nH]2)CC1(F)F [Example 32, (S)—N-(6-(3-cyano-4-((3,3-difluoro-1-(4H-1,2,4-triazole-3-carbonyl)piperidin-4-yl)oxy)phenyl)pyrimidin-4-yl)cyclopropanecarboxamide]
pIC50 (TBK1): 8.25
pIC50 (IKKε): 8.15

CC(C)(C)OC(=O)N1CC[C@H](Oc2ccc(-c3cc(NC(=O)C4CC4)ncn3)cc2C#N)C(F)(F)C1 [Example 104, Tert-butyl (S)-4-(2-cyano-4-(6-(cyclopropanecarboxamido)pyrimidin-4-yl)phenoxy)-3,3-difluoropiperidine-1-carboxylate]
pIC50 (TBK1): < 6.00
pIC50 (IKKε): < 6.00

N#Cc1cc(-c2ccnc(NC(=O)C3CC3(F)F)c2)ccc1O[C@H]1CCN(C(=O)CO)C[C@H]1F (stereo partly drawn) [Example 58, N-(4-(3-cyano-4-(((3R,4S)-3-fluoro-1-(2-hydroxyacetyl)piperidin-4-yl)oxy)phenyl)pyridin-2-yl)-2,2-difluorocyclopropane-1-carboxamide]
pIC50 (TBK1): 7.31
pIC50 (IKKε): 7.52

Cc1ncc(C(=O)N2CC[C@H](Oc3ccc(-c4cc(NC(=O)C5CC5)ncn4)cc3C#N)[C@H](F)C2)o1 [Example 107, N-(6-(3-cyano-4-(((3R,4S)-3-fluoro-1-(2-methyloxazole-5-carbonyl)piperidin-4-yl)oxy)phenyl)pyrimidin-4-yl)cyclopropanecarboxamide]
pIC50 (TBK1): 7.31
pIC50 (IKKε): 6.80

Cc1n[nH]c(C(=O)N2CC[C@H](Oc3ccc(-c4cc(NC(=O)C5CC5)ncn4)cc3C#N)C(F)(F)C2)n1 [Example 34, (S)—N-(6-(3-cyano-4-((3,3-difluoro-1-(3-methyl-1H-1,2,4-triazole-5-carbonyl)piperidin-4-yl)oxy)phenyl)pyrimidin-4-yl)cyclopropanecarboxamide]
pIC50 (TBK1): 8.38
pIC50 (IKKε): 8.34

CC1(C)C[C@@H]1C(=O)Nc1cc(-c2ccc(O[C@H]3CCN(C(=O)CO)C[C@H]3F)c(C#N)c2)ccn1 [Example 69, (S)—N-(4-(3-Cyano-4-(((3R,4S)-3-fluoro-1-(2-hydroxyacetyl)piperidin-4-yl)oxy)phenyl)pyridin-2-yl)-2,2-dimethylcyclopropane-1-carboxamide]
pIC50 (TBK1): 7.36
pIC50 (IKKε): 6.88

N#Cc1cc(-c2ccnc(NC(=O)[C@@H]3C[C@H]3C(N)=O)c2)ccc1O[C@H]1CCN(C(=O)CO)C[C@H]1F [Example 85, (1,2-trans)-N-(4-(3-cyano-4-(((3R,4S)-3-fluoro-1-(2-hydroxyacetyl)piperidin-4-yl)oxy)phenyl)pyridin-2-yl)cyclopropane-1,2-dicarboxamide]
pIC50 (TBK1): 6.96
pIC50 (IKKε): 6.94

C[n+]1ccccc1N1CC[C@H](Oc2ccc(-c3cc(NC(=O)C4CC4)ncn3)cc2C#N)[C@H](F)C1 [Example 31, 2-((3R,4S)-4-(2-cyano-4-(6-(cyclopropanecarboxamido)pyrimidin-4-yl)phenoxy)-3-fluoropiperidin-1-yl)-1-methylpyridin-1-ium 2,2,2-trifluoroacetate]
pIC50 (TBK1): < 6.00
pIC50 (IKKε): < 6.00
